{"source": "patent US7169812B2", "about": "“Process for producing injectable gabapentin compositions” (Medtronic, Inc., priority 2003, dated 2007)", "key": {"mouse": {"system": "mouse", "conditions": "cited from earlier work"}, "Crl:CD(SD)IGS BR rats": {"system": "Crl:CD(SD)IGS BR rats", "assay": "Intrathecal infusion toxicity study of heat-sterilized gabapentin solutions in rats (Day 1 to Day 29)", "type": "in vivo", "conditions": "rat", "procedure": "Rats were infused intrathecally with solutions containing varying concentrations of gabapentin.\nInjectable solutions containing 80 mg/ml gabapentin were prepared and sterilized by heating to F0=24 as described in Example 1. The heat-sterilized 80 mg/ml gabapentin solutions were diluted in sterile water for injection, USP (Abbott Laboratories; North Chicago, Ill.) to prepare solutions at gabapentin concentrations of 1.67, 4.17, and 37.5 mg/ml as shown in Table 2.\nOsmotic minipumps(ALZET® Model 2ML4) were filled with approximately 2 ml of sterile water for Groups 1 and 6 or approximately 2 ml of the appropriate test article preparation for Groups 2 through 5. All dose preparations were filtered using a 0.22 μm filter prior to filling the osmotic minipumps.\nThe animals were obtained from Charles River Laboratories; Raleigh, N.C.. The animals were cannulated by the supplier in the intrathecal space overlying the lumbar vertebrae. The cannulae consisted of 1.3 cm PE-10 tubing attached to a 7 cm piece of polyurethane tubing (0.025 ID×0.040 OD) with a total dead volume of approximately 23.5 μl. On Day 1 (staggered based on sex), the animals were anesthetized and one prefilled osmotic pump/animal was aseptically inserted subcutaneously on the animal's dorsum. The cannula was filled with sterile water or test article preparation, as appropriate, and the pumps were connected to the intrathecal cannulae. Beginning on Day 1, animals were dosed 24 hours/day at a dose volume of approximately 60.96 μl/day via intrathecal infusion using the osmotic minipump through necropsy on Day 29. At initiation of dosing, the animals were 8 to 9 weeks old, and their body weights ranged from 264 g to 340 g for the males and 191 g to 264 g for the females.\nAssessment of toxicity was based on mortality, clinical observations, ophthalmic examinations, body weights, food consumption, clinical pathology, and anatomic pathology. Ophthalmic examinations were performed prior to initiation of treatment and during week 4. An indirect ophthalmoscopy examination was done to include, but was not limited to, a cursory examination of the adnexa and anterior structures of the globe (e.g.,cornea, anterior chamber, lens) and a detailed examination of the ocular fundus. Body weights were taken prior to treatment, on Day 1, and weekly thereafter. Food consumption was measured weekly. At scheduled sacrifices, samples were taken for hematology, coagulation, and clinical chemistry. When possible, blood was collected from animals sacrificed at an unscheduled interval. Tissues were taken from each animal in groups 1 and 4 and each animal sacrificed at an unscheduled interval. Spinal cords were harvested from each animal in Groups 2, 3, and 5. The tissues and spinal cords were processed and examined microscopically. Macroscopic lesions were processed and examined microscopically from animals in Groups 2, 3, and 5. Sections of spinal cord from each animal in Groups 1 and 4 were embedded in paraffin, sectioned, and stained with luxol fast blue, and examined microscopically. Immunohistochemistry of spinal cord sections in paraffin from each animal in Groups 1 and 4 were sectioned, stained with anti-glial acidic fibrillary protein (Dako; Carpinteria, Calif.); rabbit IgG from Vector Laboratories; Burlingame, Calif. was used as a negative control), and examined. […]"}, "[1]": {"conditions": "water; basic and acidic aqueous solutions; cited from earlier work"}, "[2]": {"assay": "Tonicity of gabapentin dissolved in water", "type": "physicochemical", "conditions": "dissolved in water at 80 mg/ml", "text": "In an embodiment, the invention provides an injectable composition comprising gabapentin, where the composition is substantially isotonic with a physiological fluid of a subject. For example, the injectable solution may be isotonic with a subject's blood or cerebrospinal fluid. Cerebrospinal fluid typically has a tonicity of about 305 mOsm. Accordingly, an embodiment of the invention provides an injectable gabapentin composition having a tonicity of about 290 mOsm to about 320 mOsm. If an injectable composition comprising gabapentin has a tonicity lower than about 290 mOsm to about 320 mOsm, the tonicity may be enhanced by adding a tonicity enhancing agent, such as sodium chloride. As used herein, “tonicity enhancing agent” means a compound or composition that increases tonicity of a composition. However, such tonicities of between about 290 mOsm to about 320 mOsm are not always achievable with gabapentin compositions. For example, gabapentin dissolved in water at a concentration of 80 mg/ml has a tonicity of about 500 mOsm. When the concentration of gabaentin in an injectable composition renders the composition hypertonic relative to a subject's physiological fluid, it is preferred that little or no amount of a tonicity enhancing agent be added to the composition. […]"}}, "note": "Entries after “also recorded” stand apart in the source; their conditions may differ."}
{"smiles": "NCC1(CC(=O)O)CCCCC1", "note": "[gabapentin, 1-(aminomethyl)cyclohexane acetic acid]", "values": [{"measurement": "toxicity (LD50, mouse)", "setting": "mouse", "result": "more than 8000 mg/kg"}, {"measurement": "Overall toxicity / tolerability", "setting": "Crl:CD(SD)IGS BR rats; continuous intrathecal infusion, 0.10, 0.25, 2.25 and 4.8 mg/day, solutions heated to F0=24, acetic acid", "result": "no toxic effects attributable to the infused solutions were observed; also recorded: well tolerated and non-toxic"}, {"measurement": "Glial fibrillary acidic protein immunostaining of spinal cord sections", "setting": "Crl:CD(SD)IGS BR rats; control vs high-dose group (4.8 mg/day)", "result": "no significant variation"}, {"measurement": "Organ weight differences, macroscopic observations, microscopic observations", "setting": "Crl:CD(SD)IGS BR rats; intrathecal", "result": "no test article-related organ weight differences, macroscopic observations, or microscopic observations"}, {"measurement": "Effects on clinical observations, body weights, body weight changes, food consumption, ophthalmic observations, clinical or anatomic pathology observations", "setting": "Crl:CD(SD)IGS BR rats; intrathecal, 0.10-4.8 mg/day", "result": "No clear effects were observed"}, {"measurement": "Effect on clinical pathology test results", "setting": "Crl:CD(SD)IGS BR rats; intrathecal, terminally sterilized by heat", "result": "no obvious or adverse effect"}, {"measurement": "Solubility", "setting": "[1]", "result": "freely soluble"}, {"measurement": "Tonicity", "setting": "[2]", "result": "about 500 mOsm"}]}
